Consider one compound from paper PMC6222857, “Synthesis and Preliminary Evaluation of Biological Activity of Glycoconjugates Analogues of Acyclic Uridine Derivatives” (Molecules : A Journal of Synthetic Chemistry and Natural …, 2018).

The experiment deals with T1, β-1,4-galactosyltransferase I (β4GalT) from bovine milk (Bos taurus, UniProt P08037).
T1 construct: gene B4GALT1
T1 sequence (P08037 1-402): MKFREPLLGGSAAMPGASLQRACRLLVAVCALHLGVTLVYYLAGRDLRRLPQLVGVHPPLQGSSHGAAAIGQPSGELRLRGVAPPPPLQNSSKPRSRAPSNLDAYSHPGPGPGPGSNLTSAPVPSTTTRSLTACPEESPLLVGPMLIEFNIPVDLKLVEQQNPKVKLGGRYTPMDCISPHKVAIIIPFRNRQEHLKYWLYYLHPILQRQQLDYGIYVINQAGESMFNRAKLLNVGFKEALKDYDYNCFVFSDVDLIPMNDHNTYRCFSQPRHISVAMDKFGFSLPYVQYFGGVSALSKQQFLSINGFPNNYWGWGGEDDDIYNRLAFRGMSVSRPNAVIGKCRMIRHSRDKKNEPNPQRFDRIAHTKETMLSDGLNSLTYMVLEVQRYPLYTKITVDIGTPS
The experiment can be described thus: RP-HPLC enzymatic assay with fluorescence detection: galactose transfer from UDP-Gal to esculine. It counts as biochemical.

For orientation: IC50 means the concentration needed to halve the response being measured. Read a high IC50 as weaker potency. Take `O=C(CCOCn1ccc(=O)[nH]c1=O)Nc1ccc(S[C@@H]2O[C@H](CO)[C@@H](O)[C@H](O)[C@H]2O)nc1` [compound 64, Glycoconjugate 64]: the 50% inhibitory concentration (IC50) turned out to be 710 µM.
